Assays:
[1] = target: T1, human melanocortin-4 receptor (MC-4R) (Homo sapiens, UniProt P32245); assay: Functional assay: agonistic activity, cAMP production in membrane preparations compared with NDP-alpha-MSH, fluorescence polarization; type: biochemical; details: cAMP produced compared to stimulation with NDP-alpha-MSH; read-out: % activation functional assay
T1 construct: expressed in transfected cells; host or cells: HEK293

[2] = target: T1, human melanocortin-4 receptor (MC-4R); assay: Membrane binding assay: competition with fluorescence labeled NDP-alpha-MSH, fluorescence polarization; details: HEK293 cell membrane preparations expressing human MC-4R, read-out: hMC-4R binding assay IC50

T1 sequence (P32245 whole entry): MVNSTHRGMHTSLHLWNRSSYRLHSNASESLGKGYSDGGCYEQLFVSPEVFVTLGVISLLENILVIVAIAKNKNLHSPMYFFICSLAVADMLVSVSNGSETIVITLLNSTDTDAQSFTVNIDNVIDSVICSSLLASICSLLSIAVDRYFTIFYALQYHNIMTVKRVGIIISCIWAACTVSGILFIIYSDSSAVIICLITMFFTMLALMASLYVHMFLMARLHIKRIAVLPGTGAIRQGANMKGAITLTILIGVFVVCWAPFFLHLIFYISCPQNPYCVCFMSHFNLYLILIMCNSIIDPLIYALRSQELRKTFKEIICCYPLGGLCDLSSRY

Row | Compound | Emax [1] | IC50 [2]
1 | Cc1ccc(C2CCN(C(=O)[C@@H](Cc3ccc(Cl)cc3Cl)NC(=O)N3CCCC3)CC2)c(NCCN2CCCC2)n1 [Example 1] | 0% | ≤ 0.1 µM
2 | Cc1ccc(C2CCN(C(=O)[C@@H](Cc3ccc(Cl)cc3Cl)NC(=O)N3CCCC3)CC2)c(N(C)CCN2CCCC2)n1 [Example 2] | 0% | ≤ 0.1 µM
3 | Cc1cnc(N(C)CCN2CCCC2)c(C2CCN(C(=O)[C@@H](Cc3ccc(Cl)cc3Cl)NC(=O)N3CCCC3)CC2)c1 [Example 3] | 0% | 0.1 to 1 µM
4 | Cc1ccc(C2CCN(C(=O)[C@@H](Cc3ccc(Cl)cc3Cl)NC(=O)N3CCCC3)CC2)c(N2CCN(C)CC2)n1 [Example 4] | 0% | ≤ 0.1 µM
5 | O=C(N[C@H](Cc1ccc(Cl)cc1Cl)C(=O)N1CCC(c2cccnc2OCCN2CCCC2)CC1)N1CCCC1 [Example 5] | 0% | ≤ 0.1 µM
6 | Cc1ccc(C2CCN(C(=O)[C@@H](Cc3ccc(Cl)cc3Cl)NC(=O)N3CCCC3)CC2)c(OCCN2CCCC2)n1 [Example 6] | 0% | ≤ 0.1 µM
7 | CC[C@@H](CN1CCCC1)Oc1ncccc1C1CCN(C(=O)[C@@H](Cc2ccc(Cl)cc2Cl)NC(=O)N2CCCC2)CC1 [Example 7] | 0% | ≤ 0.1 µM
8 | CC[C@@H](CN1CCCC1)Oc1ncc(C)cc1C1CCN(C(=O)[C@@H](Cc2ccc(Cl)cc2Cl)NC(=O)N2CCCC2)CC1 [Example 9] | 0% | ≤ 0.1 µM
9 | O=C(N[C@H](Cc1ccc(Cl)cc1Cl)C(=O)N1CCC(c2cccnc2O[C@H]2CN3CCC2CC3)CC1)N1CCCC1 [Example 10] | 0% | 0.1 to 1 µM
10 | CC[C@@H](CN1CCCC1)Oc1cnccc1C1CCN(C(=O)[C@@H](Cc2ccc(Cl)cc2Cl)NC(=O)N2CCCC2)CC1 [Example 11] | 0% | ≤ 0.1 µM
11 | CC[C@@H](CN1CCCC1)Oc1ccncc1C1CCN(C(=O)[C@@H](Cc2ccc(Cl)cc2Cl)NC(=O)N2CCCC2)CC1 [Example 12] | 0% | ≤ 0.1 µM
12 | CC[C@H](COc1ccncc1C1CCN(C(=O)[C@@H](Cc2ccc(Cl)cc2Cl)NC(=O)N2CCCC2)CC1)N(C)C [Example 13] | 0% | 0.1 to 1 µM
13 | O=C(N[C@H](Cc1ccc(Cl)cc1Cl)C(=O)N1CCC(c2ncccc2OCCN2CCCC2)CC1)N1CCCC1 [Example 14] | 0% | 0.1 to 1 µM
14 | C[C@@H](CN(C)C)Oc1cccnc1C1CCN(C(=O)[C@@H](Cc2ccc(Cl)cc2Cl)NC(=O)N2CCCC2)CC1 [Example 15] | 0% | ≤ 0.1 µM
15 | C[C@@H](CN1CCCC1)Oc1cccnc1C1CCN(C(=O)[C@@H](Cc2ccc(Cl)cc2Cl)NC(=O)N2CCCC2)CC1 [Example 16] | 0% | ≤ 0.1 µM
16 | CC[C@@H](CN1CCCC1)Oc1cccnc1C1CCN(C(=O)[C@@H](Cc2ccc(Cl)cc2Cl)NC(=O)N2CCCC2)CC1 [Example 17] | 0% | ≤ 0.1 µM
17 | CC[C@H](COc1cccnc1C1CCN(C(=O)[C@@H](Cc2ccc(Cl)cc2Cl)NC(=O)N2CCCC2)CC1)N(C)C [Example 18] | 0% | ≤ 0.1 µM
18 | CN(C)C(C)(C)COc1cccnc1C1CCN(C(=O)[C@@H](Cc2ccc(Cl)cc2Cl)NC(=O)N2CCCC2)CC1 [Example 20] | 0% | ≤ 0.1 µM
19 | CN1CCC[C@H](Oc2cccnc2C2CCN(C(=O)[C@@H](Cc3ccc(Cl)cc3Cl)NC(=O)N3CCCC3)CC2)C1 [Example 21] | 0% | ≤ 0.1 µM
20 | C[C@H](Oc1cccnc1C1CCN(C(=O)[C@@H](Cc2ccc(Cl)cc2Cl)NC(=O)N2CCCC2)CC1)[C@@H](C)N(C)C [Example 22] | 0% | ≤ 0.1 µM
21 | CN1CCN(c2cccnc2C2CCN(C(=O)[C@@H](Cc3ccc(Cl)cc3Cl)NC(=O)N3CCCC3)CC2)CC1 [Example 23] | 0% | 0.1 to 1 µM
22 | CC[C@H](COc1cc(C)cnc1C1CCN(C(=O)[C@@H](Cc2ccc(Cl)cc2Cl)NC(=O)N2CCCC2)CC1)N1CCCC1 [Example 24] | 0% | ≤ 0.1 µM

— patent US20100249093A1, “Substituted Heteroarylpiperidine Derivatives As Melanocortin-4 Receptor Modulators” (SANTHERA PHARMACEUTICALS (SCHWEIZ) AG, priority 2007, published 2010)
